What was measured:
AP-1 = assay: PMA-induced AP-1 luciferase expression in HEK cells; assay type: cell-based; conditions: for IC50: 6 point dose-response curves, read-out: IC50 concentrations AP-1; for AP-1 % inhibition: four lead compounds, Table 13
NF-κB = assay: TNF-α-induced NF-κB-dependent luciferase expression in HEK cells; assay type: cell-based; set-up: NF-κB % inhibition: concentration or dose not given beside the values
[1] = system: cell lines from the prostate, one tumorigenic and one non-tumorigenic; assay: MTT viability in prostate cell line pair, tumorigenic and non-tumorigenic; assay type: cell-based; conditions: 10 μM, 48 h, tumorigenic vs non-tumorigenic line
Method: Additional compounds have also been tested for their ability to inhibit both TNF-α-induced NF-κB—expression and PMA-induced AP-1 expression. In both tests, the compound was added for 1 h, then the appropriate inducer was added, and luciferase activity was monitored 24 h later. Values were then normalized to the vehicle control, DMSO. Following the initial luciferase screens, studies were conducted to assess the cytotoxicity of the compounds in normal cells such as VSMC, HUVEC, or HPT cells. Human umbilical vein endothelial cells (HUVEC) represent the normal endothelium, vascular smooth muscle cells (VSMC) were represented by cells from the adult rat aorta, and human proximal tubule (HPT) cells represent the normal proximal tubule in vivo. These cells were grown to near confluency in multi-well plates, and were then treated for 48 h with either vehicle (0.1% DMSO) or 10 μM of each drug candidate. Following treatment, the media from the VSMC and HUVEC incubations were removed, and the amount of lactate dehydrogenase (LDH) released into the medium was determined with a commercial kit. LDH is normally confined to the cytosol, and its release represents “leakiness” of the plasma membrane. LDH activity was expressed as % increase over vehicle-treated cells. […] The number of both live and dead cells was counted using an automated cell viability analyzer. The % decrease in numbers of viable cells was determined. Toxicity in the treated HPT cells was determined by the ethidium homodimer (EthHD) uptake assay. […] Results were expressed as a % increase in cell death over vehicle-treated cells. […] Following treatment, the viability of the cells was determined by the MTT assay. In this assay, the MTT dye is converted only in viable cells by intracellular enzymes to a colorimetric product that is quantitated by a microplate reader.
For the results in Table 13, cells were grown to near confluency in multi-well plates, then treated for 48 h with either vehicle (0.1% DMSO) or 10 μM of each drug candidate. Following treatment, the media from the VSMC and HUVEC incubations were removed, and the amount of lactate dehydrogenase (LDH) released into the medium was determined with a commercial kit and expressed as a % increase over vehicle-treated cells. HPT toxicity was determined by the ethidium homodimer (EthHD) uptake assay. Inside the cell, EthHD produces a strong fluorescent signal, which is proportional to the amount of cell death, expressed as a % increase in cell death over vehicle-treated cells. […] The cells were treated for 48 h with vehicle (0.1% DMSO) or 10 μM of each drug candidate, and the viability of the cells was determined by the MTT assay, expressed as a % decrease in viability compared to vehicle-treated cells. […]

carageenan-induced edema = assay: Carrageenan-induced rat paw edema test (anti-inflammatory activity); assay type: in vivo, Sprague-Dawley rats; conditions: for In vivo inflammation % inhibition: rat paw edema induced by carageenan injection
Method in brief: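 Edema was raised by sub-plantar injection of 1% carrageenan into the right hind paw, 1 h after dosing 18 h-fasted male/female Sprague-Dawley rats (150-250 g) with 50 mg/kg p.o. in 0.1% CMC. Swelling was measured by displacement 3 h later and expressed as % protection against saline control.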

[2] = system: cell lines from the skin, one tumorigenic and one non-tumorigenic; assay: MTT viability in skin cell line pair, tumorigenic and non-tumorigenic; assay type: cell-based; conditions: 10 μM, 48 h, MTT; tumorigenic vs non-tumorigenic line
Method: Additional compounds have also been tested for their ability to inhibit both TNF-α-induced NF-κB—expression and PMA-induced AP-1 expression. In both tests, the compound was added for 1 h, then the appropriate inducer was added, and luciferase activity was monitored 24 h later. Values were then normalized to the vehicle control, DMSO. Following the initial luciferase screens, studies were conducted to assess the cytotoxicity of the compounds in normal cells such as VSMC, HUVEC, or HPT cells. Human umbilical vein endothelial cells (HUVEC) represent the normal endothelium, vascular smooth muscle cells (VSMC) were represented by cells from the adult rat aorta, and human proximal tubule (HPT) cells represent the normal proximal tubule in vivo. These cells were grown to near confluency in multi-well plates, and were then treated for 48 h with either vehicle (0.1% DMSO) or 10 μM of each drug candidate. Following treatment, the media from the VSMC and HUVEC incubations were removed, and the amount of lactate dehydrogenase (LDH) released into the medium was determined with a commercial kit. LDH is normally confined to the cytosol, and its release represents “leakiness” of the plasma membrane. LDH activity was expressed as % increase over vehicle-treated cells. In another assay of viability, the treated VSMC and HUVEC were removed by trypsinization and treated with trypan blue, a dye that is taken up only by dead cells. The number of both live and dead cells was counted using an automated cell viability analyzer. The % decrease in numbers of viable cells was determined. Toxicity in the treated HPT cells was determined by the ethidium homodimer (EthHD) uptake assay. EthHD is a fluorescent dye that is excluded from live cells, but is taken up by cells that have lost permeability barriers. Inside the cell, EthHD produces a strong fluorescent signal, which is proportional to the number of dead cells. Results were expressed as a % increase in cell death over vehicle-treated cells. The lead compounds were also tested in two pairs of cell lines from either the skin or prostate, one tumorigenic and one non-tumorigenic, to test for any differences in toxicity or heightened sensitivity in the tumorigenic lines. The cells were treated for 48 h with vehicle (0.1% DMSO) or 10 μM of each drug candidate. Following treatment, the viability of the cells was determined by the MTT assay. In this assay, the MTT dye is converted only in viable cells by intracellular enzymes to a colorimetric product that is quantitated by a microplate reader.
For the results in Table 13, cells were grown to near confluency in multi-well plates, then treated for 48 h with either vehicle (0.1% DMSO) or 10 μM of each drug candidate. Following treatment, the media from the VSMC and HUVEC incubations were removed, and the amount of lactate dehydrogenase (LDH) released into the medium was determined with a commercial kit and expressed as a % increase over vehicle-treated cells. HPT toxicity was determined by the ethidium homodimer (EthHD) uptake assay. Inside the cell, EthHD produces a strong fluorescent signal, which is proportional to the amount of cell death, expressed as a % increase in cell death over vehicle-treated cells. The lead compounds were also tested in two pairs of cell lines from the skin or prostate, one tumorigenic and one non-tumorigenic, to test for differing toxicity or heightened sensitivity in the tumorigenic lines. The cells were treated for 48 h with vehicle (0.1% DMSO) or 10 μM of each drug candidate, and the viability of the cells was determined by the MTT assay, expressed as a % decrease in viability compared to vehicle-treated cells. The in vivo inflammation model measured the % inhibition of rat paw edema induced by carageenan injection.

eIF4E = eIF4E inhibitor screen: luciferase under FGF 5′UTR in FaDu cells (highly cap-dependent translation); assay type: cell-based; conditions: 1.0 μM, 48 h, FaDu UTR cells, normalized to DMSO (FIG. 8)
Excerpt: Since highly cap-dependent translation is associated with synthesis of proteins involved in cancer, a compound that inhibits this pathway may be used as an anti-cancer agent. The assay was developed by cloning the highly structured 5′ UTR of FGF, which requires high levels of eIF4E before protein synthesis can initiate, into the proper orientation of the reporter gene luciferase, and then stably transfecting the modified luciferase gene into the cell line FaDu that is known to have high levels of eIF4E. The activity of luciferase is then monitored in the presence and absence of the tested compound.
Generation of Stable Cell Lines: The pMS110 plasmid (pGL3-control plasmid from Promega which contains a neo selectable marker) was used to generate pMS110-5′UTR by cloning the 5′ UTR of FGF just upstream of the luciferase AUG start codon. FaDu cells, a head and neck cancer cell line, were transfected using Lipofectamine2000 (Invitrogen). Twenty-four hours after transfection G418 was added at 500 μg/ml. Cells were maintained in G418 for 14 days, and then individual colonies were transferred to a 96-well plate for propagation. Individual clones were analyzed for luciferase expression by plating 10^4 cells per well in a 96-well plate for 24 hours before lysing the cells and analyzing for luciferase activity in a Victor III (Perkin Elmer) or Lucy2 (Rosys Anthos). FaDu9000 and FaDuUTR were the clones that expressed the highest level of active luciferase following transfection of pMS110 and pMS110-5′UTR, respectively.
Analysis of Rapamycin Responsiveness: Cells of FaDu9000 and FaDuUTR were plated at 1×10^4 cells/well in a 96-well dish. Twenty-four hours after plating, 0.1% DMSO (vehicle control) or 10 nM rapamycin were added to each well, and the cells were maintained for an additional 24 or 48 hours. The cells were then lysed and luciferase activity was determined using BriteGlo (Promega) as per manufacturer's instruction and recorded using the Victor III. Following subtraction of background activity, the mean value of quadruplicate samples for a given experiment was determined, and the treated cells were normalized to the control. At least four separate experiments were conducted, and the mean and standard error were calculated. To determine if rapamycin affected cell viability, an MTS assay (Cell Proliferation One Solution, Promega) was carried out on each population at 48 hours in two separate experiments.
The FaDu cell line stably transfected with FGF 5′UTR was used to screen thirty-nine representative compounds, each at a concentration of 1.0 μM. Additional cells were treated with vehicle, 0.3% DMSO. Cells were plated for twenty-four hours in a 96-well plate. Each compound was then added to triplicate wells, and the cells were incubated for forty-eight hours before measuring luciferase activity as above. The mean luciferase activity was measured using Promega's Brite-Glo kit, and the mean for each sample was normalized to DMSO. The experiment was then repeated, and the average and standard deviation of the two experiments were determined (FIG. 8).

## CNc1nc(-c2ccccc2)c(-c2nc3ccccc3c(=O)n2-c2ccccc2OC)s1 [PMCR 75]
AP-1
  IC50: 200 nM
  AP-1 % inhibition: 90%
NF-κB; 6 point dose-response curves, read-out: IC50 concentrations NF-κB
  IC50: 500 nM
[1]
  Differential Toxicity* Prostate: Normal
carageenan-induced edema
  In vivo inflammation % inhibition: 56%
[2]
  Differential Toxicity* Skin: Both

## Cc1nc(Nc2ccc(Cl)cc2)sc1-c1nc2ccccc2c(=O)n1-c1ccccc1Cl [PMCR 120]
AP-1
  AP-1 % inhibition: 27%
[1]
  Differential Toxicity* Prostate: Both
carageenan-induced edema
  In vivo inflammation % inhibition: 58%
[2]
  Differential Toxicity* Skin: Cancer

## CC(=O)c1ccc(-n2c(-c3cc(-c4ccncc4)c(N4CCOCC4)s3)nc3ccccc3c2=O)cc1 [PMCR 242]
AP-1
  IC50: 5000 nM
  AP-1 % inhibition: 84%
NF-κB; four lead compounds, Table 13
  NF-κB % inhibition: 66%
[1]
  Differential Toxicity* Prostate: Cancer
carageenan-induced edema; rat paw edema
  inflammation in the in vivo assay: strongly inhibited inflammation
carageenan-induced edema
  In vivo inflammation % inhibition: 80%
[2]
  Differential Toxicity* Skin: Neither

## Bis-(2-phenylamino-4-benzayl-thiazole-5-yl)-methanone [Example 133]
eIF4E
  luciferase expression under the control of the FGF 5′UTR: inhibited luciferase expression
AP-1; 1 uM, luciferase in HEK/AP-1 cells, as described in Example 398
  AP-1 inhibition @ 1 uM: 24.53
NF-κB; 1 uM, luciferase in HEK/NF-κB cells, as described in Example 398
  NFkB inhibition @ 1 uM: 17.74
carageenan-induced edema; rat paw edema, 50 mg/kg, reading 3 hours after carrageenan, [(Control−Test)/Control]×100%
  % Protection P: 19.09%

## N-{4-{5-[4-(4-acetylamino-phenyl)-5-morpholin-4-yl-thiophene-2-carbonyl]-2-morpholin-4-yl-thiophene-3-yl}-phenyl)-acetamide [Example 113]
eIF4E
  luciferase expression under the control of the FGF 5′UTR: increased luciferase expression

From US8829014B2, “Thiazole and thiophene analogues, and their use in treating autoimmune diseases and cancers” (Board of Supervisors of Louisiana State University and …, priority 2006, dated 2014)
